What was measured:
[1] = tested on: MRP2 in HCT116 WT IC60 CPTR cells; test: MRP2 activity, CDF accumulation; assay type: cell-based; conditions: combinatorial treatment with CPT
Method: The cells were incubated with MRP2 substrate CDFD for 30 minutes at 37° C. The accumulation of florescent product CDF was determined as a measure of MRP2 activity (FIG. 12E). The data is from three independent experiments. Mean±S.D.

[2] = target: T1, BLM-RAD54 interaction (BLM F2 and N-RAD54 F1) (Homo sapiens, UniProt Q92698); test: Renilla luciferase-based protein complementation assay (PCA); assay type: cell-based; conditions: disruption of BLM F2 / N-RAD54 F1 interaction, HEK293T cells, 1 nM to 100 μM; read-out: EC50
T1 construct: expressed in transfected cells; host or cells: HEK293T
T1 sequence (Q92698 1-212): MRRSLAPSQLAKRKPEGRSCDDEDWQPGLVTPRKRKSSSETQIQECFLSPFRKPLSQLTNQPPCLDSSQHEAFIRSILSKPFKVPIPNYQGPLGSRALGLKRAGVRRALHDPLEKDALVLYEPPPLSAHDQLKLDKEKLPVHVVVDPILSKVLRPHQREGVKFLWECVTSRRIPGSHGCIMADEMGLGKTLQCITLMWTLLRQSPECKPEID
Method: Specifically, N-RAD54-F1, C-RAD54-F1, BLM-F1 and BLM-F2 were transfected in HEK293T. Forty-eight hours post-transfection, Renilla luciferase-based PCA were carried out with the indicated combination of the expressed proteins. The experiment was repeated three times. Mean±S.D.
Using the Renilla luciferase-based protein complementation assay described earlier, 1280 FDA/EMA approved small molecules present in Prestwick chemical library were screened for their ability to disrupt BLM-RAD54 interaction. Each of the small molecules was incubated with HEK293T cells expressing BLM-F2 and N-RAD54-F1. Compared to cells expressing only BLM-F2 and N-RAD54-F1, the decrease in Renilla luciferase intensity in presence of each small molecule was monitored. Percentage disruption of the interaction between BLM F2 and N-RAD54 F1 was plotted in form of heatmap. The disruption of the BLM-RAD54 interaction was determined by a decrease in the Renilla luciferase activity as compared to control untreated cells.
The percentage disruption of the interaction between BLM F2 and N-RAD54 F1 was plotted as a non-linear regression line. The data was from three independent experiments.
Renilla Luciferase (Rlu) based Protein complementation assay was carried out as described in (Stefan et al., 2007). For preliminary screening of the Prestwick Chemical Library (containing 1280 FDA/EMA approved small molecules), HEK293T cells were seeded in the 6-well plates a day prior to the transfection. Next day the cells were transfected by 2 μg each of pcDNA3.1 N-RAD54 F1, pcDNA3.1 C-RAD54 F1, pcDNA3.1 BLM F1, pcDNA3.1 BLM F2 plasmids (alone or in different combinations) using Lipofectamine 2000 (according to the manufacturer's protocol). 36 hours post-transfection, approximately […] cells were seeded in a 96-well plate and incubated at 37° C. for 2 hour with or without 10 μM of the 1280 small molecules present in the library. 10 μM of Coenleterazine h was added into each well and Rluc activity was monitored for the first 10 seconds in Varioskan Microplate Reader (Thermo Fisher Scientific). The validation screen was performed with 17 small molecules at 100 μM, 10 μM, 1 μM, 100 nM, 10 nM and 1 nM concentrations. The percentage reduction in the protein-protein interaction was then calculated as compared to the control wells (without any small molecule).

[3] = tested on: MDR genes (MRP2, MRP3, MRP5, MXR) in HCT116 IC60 CPTR cells; conditions: 100 nM compound alone, 72 hours
Method: Concentrations of CPT used: 0.140 nM, 20 nM, 50 nM, 1000 nM. Concentration of 1-OHP: 0.14 μM, 2 μM, 4 μM, 6 μM, 8 μM. Concentrations of CDDP used: 0.140 μM, 2 μM, 5 μM, 10 μM. The percentage of viable cells were determined by MTT assays (FIG. 12A-12C). The data in FIG. 12A and FIG. 12C is from three independent experiments and the data in FIG. 12B is from nine independent experiments. […] The levels of MRP2, MRP3, MRP5, MXR were quantitated from three independent experiments. […] Specifically, HCT116 IC60 CPTR cells were transfected with the HR substrate for 72 hours and the levels of HR was determined (FIG. 6A). The data is from three independent experiments. […] The number of soft agar colonies in each condition were counted. The data is from three independent experiments.

HCT116 IC60 CPTR tumors = test: Xenograft model, camptothecin resistant cells; conditions: for tumor growth: CPT 1.25 mg/kg + compound 5 mg/kg intraperitoneally every 3 days, compared to CPT alone; for apoptosis in tumors, TUNEL positivity: dual treatment with CPT; for cell proliferation in tumors, Ki67 and PCNA levels: dual treatment with CPT/1-OHP

Row | Structure (SMILES) | MRP2 activity, accumulation of CDF [1] | EC50 [2] [nM] | transcript levels of MDR genes [3] | tumor growth (HCT116 IC60 CPTR tumors) | apoptosis in tumors, TUNEL positivity (HCT116 IC60 CPTR tumors) | cell proliferation in tumors, Ki67 and PCNA levels (HCT116 IC60 CPTR tumors) | RNA and protein levels of multiple MDR genes (including MRP2) in tumors (HCT116 IC60 CPTR tumors; co-treated with CPT 1.25 mg/kg and compound 5 mg/kg, end point)
1 | CC(=O)Nc1nnc(S(N)(=O)=O)s1 [C3, Acetazolamide] | decreased MRP2 activity | 4.2 ± 0.198 | do not alter the transcript levels of MDR genes | inhibited the tumor growth | increased apoptosis | Decreased cell proliferation | –
2 | OCCN(CCO)c1nc(N2CCCCC2)c2nc(N(CCO)CCO)nc(N3CCCCC3)c2n1 [C7, Dipyridamole] | decreased MRP2 activity | 6.16 ± 0.297 | do not alter the transcript levels of MDR genes | inhibited the tumor growth | increased apoptosis | Decreased cell proliferation | –
3 | CN1CCN(C2=Nc3ccccc3Oc3ccc(Cl)cc32)CC1.O=C(O)CCC(=O)O [C17, Loxapine succinate] | decreased MRP2 activity | 22.9 ± 4.25 | – | inhibited the tumor growth | increased apoptosis | Decreased cell proliferation | very significantly decreased

Source: patent US20240180881A1, “METHODS FOR DECREASING RESISTANCE TO CHEMOTHERAPY” (National Institute of Immunology, priority 2022, published 2024)
